Results taken from patent publication US7994140B2, “Classes of compounds that interact with GPCRs” (Alchemia Limited, priority 2002, dated 2011).

Target: T1, MC4 (Homo sapiens, UniProt P32245)
T1 construct: purchased Perkin Elmer BioSignal; host or cells: HEK 293
Experiment: GPCR radioligand binding (RLB) assay, melanocortin MC4, [125I]NDP-αMSH
Conditions: 4.0 Micromolar; Example Library 10
Description: Recombinant human receptors expressed in HEK 293 cells were used for all experiments. Receptor membrane preparations were purchased from Perkin Elmer BioSignal. The labelled ligand used in somatostatin GPCR RLB assays was [^125I]SST-14 and in melanocortin assays was [^125I]NDP-αMSH. All assays were done in a 96-well plate format using either glass fiber filter mats or filter plates. All reagents purchased were of the highest quality.
Specific assay buffer, incubation and washing conditions were optimized for each receptor however they all followed the same general format. The procedures for both filter mat and filter plate formats are based on the receptor manufacturers recommendations or those described extensively in the literature. The procedures are briefly outlined below.
In assays where filter mats are used we incubate receptor membranes, assay buffer and [^125I] labelled ligand in 96 well microplates. Add compounds to incubation mixture and continue incubation for optimized period. Presoak Filter mat GF/B in 0.5% PEI for ˜2 hr at 4° C. On completion of assay mixture incubation add additional 100 μL/well of assay buffer immediately prior to filtration. Filter the assay mixture onto the GF/B filter mat using a cell harvester. Dry the filter mats prior to sealing them into a scintillation counting bag with scintillant. Radioactivity in each well is detected by liquid scintillation counting.
In assays where filter plates are used Multiscreen glass fiber filter plates (Millipore, Cat No MAFCNOB10) are precoated with 0.5% PEI for ˜2 hr at 4° C. All wells are then washed with 200 µl/well assay buffer and filtered using the Multiscreen Separation System. Subsequently receptor membranes, assay buffer and labelled ligands are added to the wells and equilibrated. Compounds for testing are then added to the mixture and incubation is continued for an optimized time. Plates are then put into the Multiscreen Separation System and the assay mixture is filtered through the plate under vacuum. Each well is then washed several times with assay buffer. Plates are then dried prior to putting sealing tape onto the bottom of the plate. Scintillant is added to each well and radioactivity measured by liquid scintillation counting.
Raw data was analysed according to standard methods using either GraphPad Prism software or IDDBS ActivityBase software.

T1 sequence (P32245 whole entry): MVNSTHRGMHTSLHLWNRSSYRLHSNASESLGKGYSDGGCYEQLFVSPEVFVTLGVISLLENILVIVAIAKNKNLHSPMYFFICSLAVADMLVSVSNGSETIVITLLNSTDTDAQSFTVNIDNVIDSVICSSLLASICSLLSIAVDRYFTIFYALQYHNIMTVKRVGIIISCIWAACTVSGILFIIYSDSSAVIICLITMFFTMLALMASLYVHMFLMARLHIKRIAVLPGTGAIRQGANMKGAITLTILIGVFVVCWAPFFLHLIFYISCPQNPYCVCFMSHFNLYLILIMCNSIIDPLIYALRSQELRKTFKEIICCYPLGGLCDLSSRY

Structure (SMILES)	MC4 Inhibition at 4.0 Micromolar
NCCC(=O)N[C@H]1C(OCc2ccc3ccccc3c2)O[C@H](COCc2ccccc2)[C@@H](O)[C@@H]1OCc1ccccc1 (single isomer, unassigned) [Compound 362]	+ (Indicates inhibition greater than . . . 50%)
NCCC(=O)N[C@H]1C(OCc2ccc3ccccc3c2)O[C@H](COCc2ccccc2)[C@@H](O)[C@@H]1OCc1ccccc1 (single isomer, unassigned) [Compound 363]	+ (Indicates inhibition greater than . . . 50%)
NCCCC(=O)N[C@H]1C(OCc2ccc3ccccc3c2)O[C@H](COCc2ccc3ccccc3c2)[C@@H](O)[C@@H]1OCc1ccc(Cl)cc1 (single isomer, unassigned) [Compound 365]	+ (Indicates inhibition greater than . . . 50%)
NCCCC(=O)N[C@H]1C(OCc2ccc3ccccc3c2)O[C@H](COCc2ccc3ccccc3c2)[C@@H](O)[C@@H]1OCc1ccc(Cl)cc1 (single isomer, unassigned) [Compound 366]	+ (Indicates inhibition greater than . . . 50%)
NCCCC(=O)N[C@H]1C(OCc2ccc3ccccc3c2)O[C@H](COCc2ccc(Cl)cc2)[C@@H](O)[C@@H]1OCc1ccc(Cl)cc1 (single isomer, unassigned) [Compound 367]	+ (Indicates inhibition greater than . . . 50%)
NCCCC(=O)N[C@H]1C(OCc2ccc3ccccc3c2)O[C@H](COCc2ccc(Cl)cc2)[C@@H](O)[C@@H]1OCc1ccc(Cl)cc1 (single isomer, unassigned) [Compound 368]	+ (Indicates inhibition greater than . . . 50%)
NCCCC(=O)N[C@H]1C(OCc2ccc3ccccc3c2)O[C@H](COCc2ccc(Cl)cc2)[C@@H](O)[C@@H]1OCc1ccc2ccccc2c1 (single isomer, unassigned) [Compound 370]	+ (Indicates inhibition greater than . . . 50%)
NCCCC(=O)N[C@H]1C(OCc2ccc3ccccc3c2)O[C@H](COCc2ccc(Cl)cc2)[C@@H](O)[C@@H]1OCc1ccc2ccccc2c1 (single isomer, unassigned) [Compound 371]	+ (Indicates inhibition greater than . . . 50%)
NCCCC(=O)N[C@H]1C(OCc2ccc3ccccc3c2)O[C@H](COCc2ccc3ccccc3c2)[C@@H](O)[C@@H]1OCc1ccccc1 (single isomer, unassigned) [Compound 372]	+ (Indicates inhibition greater than . . . 50%)
NCCCC(=O)N[C@H]1C(OCc2ccc3ccccc3c2)O[C@H](COCc2ccc3ccccc3c2)[C@@H](O)[C@@H]1OCc1ccccc1 (single isomer, unassigned) [Compound 373]	+ (Indicates inhibition greater than . . . 50%)
NCCCC(=O)N[C@H]1C(OCc2ccc(Cl)cc2)O[C@H](COCc2ccc3ccccc3c2)[C@@H](O)[C@@H]1OCc1ccc2ccccc2c1 (single isomer, unassigned) [Compound 389]	+ (Indicates inhibition greater than . . . 50%)
NCCCC(=O)N[C@H]1C(OCc2ccc(Cl)cc2)O[C@H](COCc2ccc3ccccc3c2)[C@@H](O)[C@@H]1OCc1ccc2ccccc2c1 (single isomer, unassigned) [Compound 390]	+ (Indicates inhibition greater than . . . 50%)
NCCCC(=O)N[C@H]1C(OCc2ccc(Cl)cc2)O[C@H](COCc2ccccc2)[C@@H](O)[C@@H]1OCc1ccc2ccccc2c1 (single isomer, unassigned) [Compound 391]	+ (Indicates inhibition greater than . . . 50%)
NCCCC(=O)N[C@H]1C(OCc2ccc(Cl)cc2)O[C@H](COCc2ccccc2)[C@@H](O)[C@@H]1OCc1ccc2ccccc2c1 (single isomer, unassigned) [Compound 392]	+ (Indicates inhibition greater than . . . 50%)
NCCCC(=O)N[C@H]1C(OCc2ccc(Cl)cc2)O[C@H](COCc2ccc(Cl)cc2)[C@@H](O)[C@@H]1OCc1ccc2ccccc2c1 (single isomer, unassigned) [Compound 393]	+ (Indicates inhibition greater than . . . 50%)
NCCCC(=O)N[C@H]1C(OCc2ccc(Cl)cc2)O[C@H](COCc2ccc(Cl)cc2)[C@@H](O)[C@@H]1OCc1ccc2ccccc2c1 (single isomer, unassigned) [Compound 394]	+ (Indicates inhibition greater than . . . 50%)

Same assay, conditions: 10 micromolar compound; recombinant human receptor membranes (HEK 293)

Structure (SMILES)	MC4 inhibition at 10 micromolar
COC[C@H]1OC(OCc2ccccc2)[C@H](NC(=O)CNC(=N)N)[C@@H](OCc2ccc(-c3ccccc3)cc2)[C@@H]1O (some centres unmarked) [Compound 5]	+ (Indicates inhibition greater than . . . 50%)
COC[C@H]1OC(OCCc2ccccc2)[C@H](NC(=O)CNC(=N)N)[C@@H](OCc2ccc(-c3ccccc3)cc2)[C@@H]1O (some centres unmarked) [Compound 19]	+ (Indicates inhibition greater than . . . 50%)
COC[C@H]1OC(OCCc2ccccc2)[C@H](NC(=O)CCNC(=N)N)[C@@H](OCc2ccc(-c3ccccc3)cc2)[C@@H]1O (some centres unmarked) [Compound 20]	+ (Indicates inhibition greater than . . . 50%)
CO[C@H]1[C@H](O)[C@@H](COCc2ccc(-c3ccccc3)cc2)OC(OCc2ccc(-c3ccccc3)cc2)[C@@H]1NC(=O)CCCNC(=N)N (some centres unmarked) [Compound 58]	+ (Indicates inhibition greater than . . . 50%)
CO[C@H]1[C@H](O)[C@@H](COCc2ccc3ccccc3c2)OC(OCc2ccc(-c3ccccc3)cc2)[C@@H]1NC(=O)CNC(=N)N (some centres unmarked) [Compound 59]	+ (Indicates inhibition greater than . . . 50%)
COC1C(O)C(COCc2ccc3ccccc3c2)OC(OCc2ccc(-c3ccccc3)cc2)C1NC(=O)CCCNC(=N)N (centres unmarked) [Compound 62]	+ (Indicates inhibition greater than . . . 50%)
COC1C(O)C(COCc2ccc(Cl)cc2)OC(OCc2ccc(-c3ccccc3)cc2)C1NC(=O)CNC(=N)N (centres unmarked) [Compound 63]	+ (Indicates inhibition greater than . . . 50%)
COC1C(O)C(COCc2ccc(Cl)cc2)OC(OCc2ccc(-c3ccccc3)cc2)C1NC(=O)CCNC(=N)N (centres unmarked) [Compound 64]	+ (Indicates inhibition greater than . . . 50%)
COC1C(O)C(COCc2ccc(Cl)cc2)OC(OCc2ccc(-c3ccccc3)cc2)C1NC(=O)CCCN (centres unmarked) [Compound 65]	+ (Indicates inhibition greater than . . . 50%)
COC1C(O)C(COCc2ccc(Cl)cc2)OC(OCc2ccc(-c3ccccc3)cc2)C1NC(=O)CCCNC(=N)N (centres unmarked) [Compound 66]	+ (Indicates inhibition greater than . . . 50%)
COC1C(O)C(COCc2ccc(-c3ccccc3)cc2)OC(OCc2ccc3ccccc3c2)C1NC(=O)CNC(=N)N (centres unmarked) [Compound 67]	+ (Indicates inhibition greater than . . . 50%)
COC1C(O)C(COCc2ccc(-c3ccccc3)cc2)OC(OCc2ccc3ccccc3c2)C1NC(=O)CCNC(=N)N (centres unmarked) [Compound 68]	+ (Indicates inhibition greater than . . . 50%)
COC1C(O)C(COCc2ccc(-c3ccccc3)cc2)OC(OCc2ccc3ccccc3c2)C1NC(=O)CCCNC(=N)N (centres unmarked) [Compound 70]	+ (Indicates inhibition greater than . . . 50%)
COC1C(O)C(COCc2ccc3ccccc3c2)OC(OCc2ccc3ccccc3c2)C1NC(=O)CNC(=N)N (centres unmarked) [Compound 71]	+ (Indicates inhibition greater than . . . 50%)
COC1C(O)C(COCc2ccc3ccccc3c2)OC(OCc2ccc3ccccc3c2)C1NC(=O)CCNC(=N)N (centres unmarked) [Compound 72]	+ (Indicates inhibition greater than . . . 50%)
COC1C(O)C(COCc2ccc3ccccc3c2)OC(OCc2ccc3ccccc3c2)C1NC(=O)CCCNC(=N)N (centres unmarked) [Compound 74]	+ (Indicates inhibition greater than . . . 50%)
COC1C(O)C(COCc2ccc(Cl)cc2)OC(OCc2ccc3ccccc3c2)C1NC(=O)CNC(=N)N (centres unmarked) [Compound 75]	+ (Indicates inhibition greater than . . . 50%)
COC1C(O)C(COCc2ccc(Cl)cc2)OC(OCc2ccc3ccccc3c2)C1NC(=O)CCNC(=N)N (centres unmarked) [Compound 76]	+ (Indicates inhibition greater than . . . 50%)
COC1C(O)C(COCc2ccc(Cl)cc2)OC(OCc2ccc3ccccc3c2)C1NC(=O)CCCNC(=N)N (centres unmarked) [Compound 78]	+ (Indicates inhibition greater than . . . 50%)
COC1C(O)C(COCc2ccc(-c3ccccc3)cc2)OC(OCc2ccccc2)C1NC(=O)CCCNC(=N)N (centres unmarked) [Compound 79]	+ (Indicates inhibition greater than . . . 50%)
COC1C(O)C(COCc2ccc(Cl)cc2)OC(OCc2ccccc2)C1NC(=O)CCCN (centres unmarked) [Compound 81]	+ (Indicates inhibition greater than . . . 50%)
COC1C(O)C(COCc2ccc(Cl)cc2)OC(OCc2ccccc2)C1NC(=O)CCCNC(=N)N (centres unmarked) [Compound 82]	+ (Indicates inhibition greater than . . . 50%)
